In patent publication USH505H, “Boron uptake in tumors, cerebrum and blood from [10B]NA4B24H22S2” (The United States of America as represented by the United …, priority 1986, dated 1988):

System: Harding-Passey (HP) melanomas
Test: Boron concentrations in melanoma tumor, blood and cerebrum of mice after intraperitoneal administration (prompt gamma analysis)
Parameters: species or system female BALB/cJ mice
Settings: mouse, in vivo, ip
Experimental: Aqueous solutions of [^10 B]Na2 B12 H11 SH or [^10 B]Na4 B24 H22 S2 were infused slowly intraperitoneally [~200 μl capacity osmotic pump, model 2001, Alza Corp., Palo Alto, Calif.] or were injected intraperitoneally promptly into 15-20 g female BALB/cJ mice bearing subcutaneously implanted Harding-Passey (HP) melanomas. In experiment 6 (Table 1), 5.3×10^-3 M Na2 S2 O5 was added to retard oxidation of [B12 H11 SH]^2-. Mice were deeply anesthetized with ether and then killed by exsanguination at times specified in Table 1. The osmotic pumps were designed to function for 219±6 hr, although the precise duration of their infusion in each mouse is unknown.
Tissue and blood specimens in quartz test tubes, with sufficient H2 O added to bring each sample to a total weight of 1.00 g, were analyzed for boron by counting 478 keV gamma photons from the ^10 B(n,αγ)^7 Li reaction during irradiation by slow neutrons.

Na2 B12 H11 SH
Blood boron concentration (34.5 mg/kg, 24 h): 6.3 ± 2.2 μgB/g
Cerebrum boron concentration (34.5 mg/kg, 24 h): 4.9 ± 3.8 μgB/g
Concentration ratio Tumor:Blood (34.5 mg/kg, 24 h): 1.0
Tumor boron concentration (34.5 mg/kg, 24 h): 6.3 ± 2.2 μgB/g
Blood boron concentration (35.4 mg/kg, 6 h): 3.8 ± 9.9 μgB/g
Cerebrum boron concentration (35.4 mg/kg, 6 h): 3.8 ± 3.4 μgB/g
Concentration ratio Tumor:Blood (35.4 mg/kg, 6 h): 2.3
Tumor boron concentration (35.4 mg/kg, 6 h): 8.7 ± 9.9 μgB/g
Blood boron concentration (35.5 mg/kg, 12 h): 5.5 ± 4.8 μgB/g
Cerebrum boron concentration (35.5 mg/kg, 12 h): 0.9 ± 1.6 μgB/g
Concentration ratio Tumor:Blood (35.5 mg/kg, 12 h): 1.0
Tumor boron concentration (35.5 mg/kg, 12 h): 5.5 ± 4.8 μgB/g
Blood boron concentration (187 mg/kg, 190 h): 13.2 ± 6.3 μgB/g
Cerebrum boron concentration (187 mg/kg, 190 h): 7.0 μgB/g
Concentration ratio Tumor:Blood (187 mg/kg, 190 h): 1.0
Tumor boron concentration (187 mg/kg, 190 h): 12.6 ± 1.7 μgB/g
Blood boron concentration (187 mg/kg, 219 h): 4.9 ± 1.1 μgB/g
Cerebrum boron concentration (187 mg/kg, 219 h): 1.0 ± 0.4 μgB/g
Concentration ratio Tumor:Blood (187 mg/kg, 219 h): 1.6
Tumor boron concentration (187 mg/kg, 219 h): 7.9 ± 1.5 μgB/g
Blood boron concentration (195 mg/kg, 219 h): 5.5 ± 3.0 μgB/g
Cerebrum boron concentration (195 mg/kg, 219 h): 1.2 ± 1.0 μgB/g
Concentration ratio Tumor:Blood (195 mg/kg, 219 h): 1.5
Tumor boron concentration (195 mg/kg, 219 h): 8.5 ± 2.9 μgB/g
Blood boron concentration (262 mg/kg, 234 h): 7.7 ± 4.6 μgB/g
Cerebrum boron concentration (262 mg/kg, 234 h): 3.2 ± 0.0 μgB/g
Concentration ratio Tumor:Blood (262 mg/kg, 234 h): 1.8
Tumor boron concentration (262 mg/kg, 234 h): 14.1 ± 1.1 μgB/g
